Assay results: patent US6455510B1, “Chemical Compounds” (SmithKline Beecham Corporation, priority 1997, dated 2002)

Experiments:
[1] = target: T1, human adenosine A3 receptor (Homo sapiens, UniProt P0DMS8); assay: Reporter gene assay (CRE/SPAP) in CHO cells, agonist activity, adenosine A3; assay type: cell-based; conditions: CHO cells stably transfected with human adenosine A3 receptor; inhibition of forskolin-stimulated SPAP production; potency relative to NECA=1
T1 construct: expressed in transfected cells; host or cells: Chinese hamster ovary (CHO) cells containing CRE/SPAP/HYG reporter elements
T1 sequence (P0DMS8 1-318): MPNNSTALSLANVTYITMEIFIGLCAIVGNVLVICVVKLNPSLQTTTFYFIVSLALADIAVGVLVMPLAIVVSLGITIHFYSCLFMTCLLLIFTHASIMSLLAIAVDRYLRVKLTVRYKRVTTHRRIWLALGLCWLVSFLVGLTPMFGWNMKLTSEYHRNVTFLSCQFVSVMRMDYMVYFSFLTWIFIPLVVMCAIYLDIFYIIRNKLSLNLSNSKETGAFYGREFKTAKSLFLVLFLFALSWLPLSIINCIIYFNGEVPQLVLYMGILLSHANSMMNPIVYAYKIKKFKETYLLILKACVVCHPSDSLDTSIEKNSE
Procedure: (§1) Reporter Gene Experiments
(§2) Agonist activity was measured in Chinese hamster ovary (CHO) cells containing the CRE/SPAP/HYG (CRE=cyclic AMP response element; HYG=hygromycin resistance; SPAP=secreted placental alkaline phosphatase) reporter gene elements, which upon stimulation of cAMP levels produced SPAP. A cell line was used, which was stably transfected with either the human adenosine Al receptor or the human adenosine A3 receptor in addition to the above elements. Cells were plated out in 96-well plates in culture medium and incubated at 37° C. for 1 hour. For measurement of potency, agonists were added to the appropriate wells at a concentration range of approximately 10^−10-10^−5M. 15 Min later, cAMP levels were stimulated by addition of a maximal concentration of forskolin. All cells were then incubated for a further 5 hours at 37° C., and cooled to room temperature, after which a substrate for the phosphatase (para-nitrophenol phosphate, pNPP), which is converted by SPAP to a coloured reagent) was then added and the 96-well plates were read in a plate reader. From these readings, the concentration-dependence of the inhibition by the agonist for forskolin-stimulated SPAP production can be calculated. One of the agonists tested on each 96-well plate was the standard non-selective agonist, N-ethylcarboxamidoadenosine (NECA), and the potency of all test agonists is expressed relative to that of the NECA standard.
(§3) (ECR=equipotent concentration ratio relative to NECA=1)

[2] = target: T2, human adenosine A1 receptor (Homo sapiens, UniProt P30542); assay: Reporter gene assay (CRE/SPAP) in CHO cells, agonist activity, adenosine A1; assay type: cell-based; conditions: CHO cells stably transfected with human adenosine A1 receptor; inhibition of forskolin-stimulated SPAP production; potency relative to NECA=1
T2 construct: expressed in transfected cells; host or cells: Chinese hamster ovary (CHO) cells containing CRE/SPAP/HYG reporter elements
T2 sequence (P30542 1-326): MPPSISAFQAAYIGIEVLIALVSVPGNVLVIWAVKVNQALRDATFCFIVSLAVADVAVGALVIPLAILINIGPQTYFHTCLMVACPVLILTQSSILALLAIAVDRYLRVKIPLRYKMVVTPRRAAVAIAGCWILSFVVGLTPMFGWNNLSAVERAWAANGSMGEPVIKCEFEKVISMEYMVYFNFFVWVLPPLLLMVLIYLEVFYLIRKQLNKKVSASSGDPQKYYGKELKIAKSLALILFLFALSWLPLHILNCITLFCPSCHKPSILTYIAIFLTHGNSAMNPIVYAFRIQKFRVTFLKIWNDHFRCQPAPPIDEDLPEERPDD
Procedure: as §1
as §2, with “For measurement of potency, agonists were added to the appropriate wells at a concentration range of approximately 10^−10-10^−5M.” left out, “calculated.” for “calculated. One of the agonists tested on each 96-well plate was the standard non-selective agonist, N-ethylcarboxamidoadenosine (NECA), and the potency of all test agonists is expressed relative to that of the NECA standard.”
as §3

SMILES: CCOC(=O)N1CCC(Nc2ncnc3c2ncn3[C@@H]2O[C@H](CF)[C@@H](O)[C@H]2O)CC1 [Example 14, 4-[9-(5S-Fluoromethyl-3R,4S-dihydroxy-tetrahydro-furan-2R-yl)-9H-purin-6-ylamino]-piperidine-1-carboxylic acid ethyl ester]
- A3 Receptor, Reporter Gene Assay ECR (equipotent concentration ratio relative to NECA=1) [1]: >435.00
- A1 Receptor, Reporter Gene Assay ECR (equipotent concentration ratio relative to NECA=1) [2]: 1.68

SMILES: OCC(O)CNc1nc(Cl)nc2c1ncn2[C@@H]1O[C@H](CF)[C@@H](O)[C@H]1O (some centres unmarked) [Example 16, 2-Chloro-5′-deoxy-N-(2,3-dihydroxy-propyl)-5′-fluoro-adenosine]
- A3 Receptor, Reporter Gene Assay ECR (equipotent concentration ratio relative to NECA=1) [1]: >240.00
- A1 Receptor, Reporter Gene Assay ECR (equipotent concentration ratio relative to NECA=1) [2]: 7.29

SMILES: CC(C)(C)CNc1nc(Cl)nc2c1ncn2[C@@H]1O[C@H](CF)[C@@H](O)[C@H]1O [Example 24, 2-Chloro-5′-deoxy-N-(2,2-dimethyl-propyl)-5′-fluoro-adenosine]
- A3 Receptor, Reporter Gene Assay ECR (equipotent concentration ratio relative to NECA=1) [1]: >233.00
- A1 Receptor, Reporter Gene Assay ECR (equipotent concentration ratio relative to NECA=1) [2]: 7.83

SMILES: CCOC(=O)N1CCC(Nc2nc(Cl)nc3c2ncn3[C@@H]2O[C@H](CF)[C@@H](O)[C@H]2O)CC1 [Example 9, 4-[2-Chloro-9-(5S-fluoromethyl-3R,4S-dihydroxy-tetrahydro-furan-2R-yl)-9H-purin-6-ylamino]-piperidine-1-carboxylic acid ethyl ester]
- A3 Receptor, Reporter Gene Assay ECR (equipotent concentration ratio relative to NECA=1) [1]: >129.00
- A1 Receptor, Reporter Gene Assay ECR (equipotent concentration ratio relative to NECA=1) [2]: 3.00

SMILES: CC(F)(F)[C@H]1O[C@@H](n2cnc3c(NCC4CC4)ncnc32)[C@H](O)[C@@H]1O [Example 17, (2R,3R,4S,5S)-2-[6-(Cyclopropylmethyl-amino)-purin-9-yl]-(1,1-difluoro-ethyl)-tetrahydro-furan-3,4-diol]
- A3 Receptor, Reporter Gene Assay ECR (equipotent concentration ratio relative to NECA=1) [1]: >353.00
- A1 Receptor, Reporter Gene Assay ECR (equipotent concentration ratio relative to NECA=1) [2]: 22.30

SMILES: CC(C)(C)CNc1ncnc2c1ncn2[C@@H]1O[C@H](CF)[C@@H](O)[C@H]1O [Example 19, 5′-Deoxy-5′-fluoro-N-(2,2-dimethyl-propyl)-adenosine]
- A3 Receptor, Reporter Gene Assay ECR (equipotent concentration ratio relative to NECA=1) [1]: >353.00
- A1 Receptor, Reporter Gene Assay ECR (equipotent concentration ratio relative to NECA=1) [2]: 3.51

SMILES: O[C@@H]1[C@H](O)[C@@H](CF)O[C@H]1n1cnc2c(Nc3ccc(Cl)cc3F)ncnc21 [Example 28, N-(4-Chloro-2-fluoro-phenyl)-5′-deoxy-5′-fluoro-adenosine]
- A3 Receptor, Reporter Gene Assay ECR (equipotent concentration ratio relative to NECA=1) [1]: >170.00
- A1 Receptor, Reporter Gene Assay ECR (equipotent concentration ratio relative to NECA=1) [2]: 2.05
